The values that follow come from patent US5601800A, “New multifunctional ligands for potential use in the design therapeutic or diagnostic radiopharmaceutical imaging agents” (Curators of the University of Missouri, priority 1994, dated 1997).

The data set can be described thus: water solubility. The format is physicochemical.

As for `CCCCP(=N)(CCCC)CCCC` [tributylphosphinimine], the solubility in water result was “soluble in water”.
